Measurements as given in patent US3958011A, “Compositions of tri-n-propylacetic acid and salts thereof and treatment of neurological disorders with such compositions” (priority 1972, dated 1976).
Like-named read-outs stand apart in the source and are kept apart here.

How the values were obtained:
mice [1] = test: Traction test (myorelaxant properties); assay type: in vivo, mice (OF 1); conditions: for Number of animals which have lost the traction reflex: groups of 10; for ED50: Mus musculus, ip, read-out: ED50, loss of traction reflex
Method: This test enables sense of balance as well as muscular tonus and strength to be evaulated.
The test is carried out on groups of 10 male mice of the OF 1 strain weighing about 25 g. It consists of suspending the mice by the front paws to a horizontally stretched wire. Note is first taken of the time required by a group of control animals to effect recovery i.e. to place at least one of their back paws on the wire.

mice [2] = test: Evasion test (tranquillizing properties); assay type: in vivo; conditions: for Total number of exits per batch: batch of 28 mice; for Average time before first exit: controls 14
Method: This test enables the exploring capacities of mice to be studied. A parallelepipedic lidless plywood box is used which contains an inclined plane, also of plywood, covered with a fine mesh. A horizontal datum line is marked on the inclined plane 2 cm below the point at which the plane bears on the box edge. The whole device is placed in an artificially lit room away from all shrill noise. Any crossing, in an upward direction, by a mouse of the datum line is termed an "exit".
The test was carried out on batches of 28 mice weighing about 22 g. The animals of each batch received an intraperitoneal dose of the compound to be studied so that each batch received a higher dose than the preceding batch.
Thirty minutes after administration of the compound, the animals were placed in the box by batches and kept at the bottom for 10 seconds by a movable board. The average length or time after which the first exit occurred was noted as well as the total number of exits per batch every minute for 5 minutes. The same details were also recorded for a control batch which had not received the compound. The following results were obtained with the preferred compound of the invention namely sodium tri-n-propylacetate: […]

CCCC(CCC)(CCC)C(=O)[O-].[Na+] [Sodium tri-n-propylacetate, sodium tri-n-propylacetate]
Number of animals which have lost the traction reflex (mice [1]; 20 mg/kg i.p., 15 min.): 1
Number of animals which have lost the traction reflex (mice [1]; 20 mg/kg i.p., 30 min.): 2
Number of animals which have lost the traction reflex (mice [1]; 20 mg/kg i.p., 45 min.): 0
Number of animals which have lost the traction reflex (mice [1]; 50 mg/kg i.p., 15 min.): 0
Number of animals which have lost the traction reflex (mice [1]; 50 mg/kg i.p., 30 min.): 1
Number of animals which have lost the traction reflex (mice [1]; 50 mg/kg i.p., 45 min.): 2
Number of animals which have lost the traction reflex (mice [1]; 75 mg/kg i.p., 15 min.): 3
Number of animals which have lost the traction reflex (mice [1]; 75 mg/kg i.p., 30 min.): 0
Number of animals which have lost the traction reflex (mice [1]; 75 mg/kg i.p., 45 min.): 1
Number of animals which have lost the traction reflex (mice [1]; 100 mg/kg i.p., 15 min.): 8
Number of animals which have lost the traction reflex (mice [1]; 100 mg/kg i.p., 30 min.): 1
Number of animals which have lost the traction reflex (mice [1]; 100 mg/kg i.p., 45 min.): 0
Number of animals which have lost the traction reflex (mice [1]; 150 mg/kg i.p., 15 min.): 10
Number of animals which have lost the traction reflex (mice [1]; 150 mg/kg i.p., 30 min.): 10
Number of animals which have lost the traction reflex (mice [1]; 150 mg/kg i.p., 45 min.): 9
ED50 (mice [1]; 0.25 h): 80 mg/kg
ED50 (mice [1]; 0.5 h): 110 mg/kg
ED50 (mice [1]; 0.75 h): 130 mg/kg
Time of maximum myorelaxant activity after administration (mice [1]; intraperitoneal): 15 min
Activity index: NTD50/ED50 (mice [1]; rota rod NTD50 / traction ED50, 30 minutes after administration): 1.1
Total number of exits per batch (mice [2]; 50 mg/kg i.p., 1 min.): 54
Total number of exits per batch (mice [2]; 50 mg/kg i.p., 2 min.): 44
Total number of exits per batch (mice [2]; 50 mg/kg i.p., 3 min.): 43
Total number of exits per batch (mice [2]; 50 mg/kg i.p., 4 min.): 41
Total number of exits per batch (mice [2]; 50 mg/kg i.p., 5 min.): 28
Average time before first exit (mice [2]; 50 mg/kg i.p.): 25 s
Total number of exits per batch (mice [2]; 75 mg/kg i.p., 1 min.): 44
Total number of exits per batch (mice [2]; 75 mg/kg i.p., 2 min.): 37
Total number of exits per batch (mice [2]; 75 mg/kg i.p., 3 min.): 31
Total number of exits per batch (mice [2]; 75 mg/kg i.p., 4 min.): 34
Total number of exits per batch (mice [2]; 75 mg/kg i.p., 5 min.): 28
Average time before first exit (mice [2]; 75 mg/kg i.p.): 21 s
